# Laboratory results from patent publication US8822503B2, “2-pyridone compounds” (Taisho Pharmaceutical Co., Ltd, priority 2009, dated 2014).
# Target: T1, human liver GK (Homo sapiens, UniProt P35557)
# T1 construct: GST (glutathione S-transferase) (N); made in house; host or cells: E. coli
# T1 sequence (P35557 1-466 isoform P35557-2): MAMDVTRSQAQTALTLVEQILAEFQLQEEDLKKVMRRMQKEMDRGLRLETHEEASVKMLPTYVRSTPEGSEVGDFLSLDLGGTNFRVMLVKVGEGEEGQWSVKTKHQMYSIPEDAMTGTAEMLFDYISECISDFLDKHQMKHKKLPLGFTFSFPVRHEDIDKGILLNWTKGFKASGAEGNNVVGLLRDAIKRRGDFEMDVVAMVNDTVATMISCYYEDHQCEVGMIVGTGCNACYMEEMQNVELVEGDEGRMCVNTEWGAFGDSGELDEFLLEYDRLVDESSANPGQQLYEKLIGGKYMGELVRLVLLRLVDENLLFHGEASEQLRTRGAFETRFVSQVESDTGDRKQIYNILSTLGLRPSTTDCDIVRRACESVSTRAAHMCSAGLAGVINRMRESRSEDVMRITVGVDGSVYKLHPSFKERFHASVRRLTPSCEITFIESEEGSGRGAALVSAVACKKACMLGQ
# Assay: GK activation test
# Assay type: biochemical
# Settings: test compound concentration needed to activate 50% of maximum activation ability; 4 mM 14C-labeled glucose, 2 mM ATP, room temperature, 20 minutes
# Summary of the method: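 GST-tagged human liver GK from E. coli (0.24 μg/well) with 4 mM 14C-glucose, 2 mM ATP in Hepes-KOH pH 7.1, KCl, MgCl2, DTT, 1% DMSO, 20 min room temperature. Labeled glucose 6-phosphate captured on anion resin, eluted and counted. EC50 = concentration giving half of maximal activation.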
row,Structure (SMILES),EC50 [µM]
1,"CC(C)(C)c1ccc(/C(=C\[C@H]2CCC(=O)N2)c2ccc(CCCc3ccccc3)c(=O)[nH]2)cc1 [Example 4-197, 6-{(E)-1-(4-tert-Butylphenyl)-2-[(2R)-5-oxopyrrolidin-2-yl]ethenyl}-3-(3-phenylpropyl)pyridin-2(1H)-one]",0.5 to 3
2,"CC(C)(C)c1ccc(/C(=C\[C@H]2CCC(=O)N2)c2ccc(CCCO)c(=O)[nH]2)cc1 [Example 4-198, 6-{(E)-1-(4-tert-Butylphenyl)-2-[(2R)-5-oxopyrrolidin-2-yl]ethenyl}-3-(3-hydroxypropyl)pyridin-2(1H)-one]",0.01 to 0.5
3,"O=C1CC[C@H](/C=C(\c2ccc(Cl)cc2)c2ccc(CCCCO)c(=O)[nH]2)N1 [Example 4-199, 6-{(E)-1-(4-Chlorophenyl)-2-[(2R)-5-oxopyrrolidin-2-yl]ethenyl}-3-(4-hydroxybutyl)pyridin-2(1H)-one]",0.5 to 3
4,"O=C1CC[C@H](/C=C(\c2ccc(C(F)(F)F)cc2)c2ccc(CCCCO)c(=O)[nH]2)N1 [Example 4-200, 3-(4-Hydroxybutyl)-6-{(E)-2-[(2R)-5-oxopyrrolidin-2-yl]-1-[4-(trifluoromethyl)phenyl]ethenyl}pyridin-2(1H)-one]",0.5 to 3
5,"CC(C)(C)c1ccc(/C(=C\[C@H]2CCC(=O)N2)c2ccc(CCC(N)=O)c(=O)[nH]2)cc1 [Example 4-201, 3-(6-{(E)-1-(4-tert-Butylphenyl)-2-[(2R)-5-oxopyrrolidin-2-yl]ethenyl}-2-oxo-1,2-dihydropyridin-3-yl)propanamide]",0.5 to 3
6,"CC(C)(C)c1ccc(/C(=C\[C@H]2CCC(=O)N2)c2ccc(C#N)c(=O)[nH]2)cc1 [Example 4-202, 6-{(E)-1-(4-tert-Butylphenyl)-2-[(2R)-5-oxopyrrolidin-2-yl]ethenyl}-2-oxo-1,2-dihydropyridine-3-carbonitrile]",0.5 to 3
7,"CC(C)(C)c1ccc(C(=C[C@H]2CCC(=O)N2)c2ccc(C3(O)CCC3)c(=O)[nH]2)cc1 [Example 4-203, 6-{1-(4-tert-Butylphenyl)-2-[(2R)-5-oxopyrrolidin-2-yl]ethenyl}-3-(1-hydroxycyclobutyl)pyridin-2(1H)-one]",3 to 10
8,"CC(C)(C)c1ccc(/C(=C\[C@H]2CCC(=O)N2)c2ccc(Cc3ccccc3)c(=O)[nH]2)cc1 [Example 4-205, 3-Benzyl-6-{(E)-1-(4-tert-butylphenyl)-2-[(2R)-5-oxopyrrolidin-2-yl]ethenyl}pyridin-2(1H)-one]",0.01 to 0.5
9,"CSc1ccc(/C(=C/[C@H]2CCC(=O)N2)c2ccc(C(C)(C)C)cc2)[nH]c1=O [Example 4-206, 6-{(E)-1-(4-tert-Butylphenyl)-2-[(2R)-5-oxopyrrolidin-2-yl]ethenyl}-3-(methylsulfanyl)pyridin-2(1H)-one]",0.01 to 0.5
10,"O=C1CC[C@H](C[C@H](c2ccc(Cl)c(Cl)c2)c2ccc(C3CC3)c(=O)[nH]2)N1 [Example 4-207, 3-Cyclopropyl-6-{(1R)-1-(3,4-dichlorophenyl)-2-[(2R)-5-oxopyrrolidin-2-yl]ethyl}pyridin-2(1H)-one]",0.01 to 0.5
11,"O=C1CC[C@H](C[C@@H](c2ccc(Cl)c(Cl)c2)c2ccc(C3CC3)c(=O)[nH]2)N1 [Example 4-208, 3-Cyclopropyl-6-{(1S)-1-(3,4-dichlorophenyl)-2-[(2R)-5-oxopyrrolidin-2-yl]ethyl}pyridin-2(1H)-one]",3 to 10
12,"CCOc1ccc(C(C[C@H]2CCC(=O)N2)c2ccc(Cl)c(=O)[nH]2)cc1F (stereo partly drawn) [Example 4-241, 3-Chloro-6-{1-(4-ethoxy-3-fluorophenyl)-2-[(2R)-5-oxopyrrolidin-2-yl]ethyl}pyridin-2(1H)-one]",3 to 10
13,"Cc1ccc(/C(=C\[C@H]2CCC(=O)N2)c2ccc(Cl)c(=O)[nH]2)cc1 [Example 4-256, 3-Chloro-6-{(E)-1-(4-methylphenyl)-2-[(2R)-5-oxopyrrolidin-2-yl]ethenyl}pyridin-2(1H)-one]",0.5 to 3
14,"CCc1ccc(/C(=C\[C@H]2CCC(=O)N2)c2ccc(Cl)c(=O)[nH]2)cc1Cl [Example 4-257, 3-Chloro-6-{(E)-1-(3-chloro-4-ethylphenyl)-2-[(2R)-5-oxopyrrolidin-2-yl]ethenyl}pyridin-2(1H)-one]",0.01 to 0.5
15,"CC(C)Oc1ccc(/C(=C\[C@H]2CCC(=O)N2)c2ccc(C3CC3)c(=O)[nH]2)cc1Cl [Example 4-258, 6-{(E)-1-[3-Chloro-4-(propan-2-yloxy)phenyl]-2-[(2R)-5-oxopyrrolidin-2-yl]ethenyl}-3-cyclopropylpyridin-2(1H)-one]",0.01 to 0.5
16,"O=C1CC[C@H](/C=C(\c2ccc(C(F)(F)F)cc2)c2ccc(C(F)(F)F)c(=O)[nH]2)N1 [Example 4-259, 6-{(E)-2-[(2R)-5-Oxopyrrolidin-2-yl]-1-[4-(trifluoromethyl)phenyl]ethenyl}-3-(trifluoromethyl)pyridin-2(1H)-one]",0.5 to 3
17,"COc1ccc(/C(=C\[C@H]2CCC(=O)N2)c2ccc(C3CC3)c(=O)[nH]2)cc1Cl [Example 4-260, 6-{(E)-1-(3-Chloro-4-methoxyphenyl)-2-[(2R)-5-oxopyrrolidin-2-yl]ethenyl}-3-cyclopropylpyridin-2(1H)-one]",0.01 to 0.5
18,"O=C1CC[C@H](/C=C(\c2cccc(C(F)(F)F)c2)c2ccc(Cl)c(=O)[nH]2)N1 [Example 4-261, 3-Chloro-6-{(E)-2-[(2R)-5-oxopyrrolidin-2-yl]-1-[3-(trifluoromethyl)phenyl]ethenyl}pyridin-2(1H)-one]",3 to 10
19,"O=C1CC[C@H](/C=C(/c2ccc(Cl)c(=O)[nH]2)c2ccc(C(F)(F)F)cc2F)N1 [Example 4-262, 3-Chloro-6-{(E)-1-[2-fluoro-4-(trifluoromethyl)phenyl]-2-[(2R)-5-oxopyrrolidin-2-yl]ethenyl}pyridin-2(1H)-one]",0.5 to 3
20,"CC1(C)CCc2cc(/C(=C\[C@H]3CCC(=O)N3)c3ccc(Cl)c(=O)[nH]3)ccc2O1 [Example 4-263, 3-Chloro-6-{(E)-1-(2,2-dimethyl-3,4-dihydro-2H-chromen-6-yl)-2-[(2R)-5-oxopyrrolidin-2-yl]ethenyl}pyridin-2(1H)-one]",0.5 to 3
21,"COCCCc1ccc(/C(=C\[C@H]2CCC(=O)N2)c2ccc(Cl)c(=O)[nH]2)cc1 [Example 4-264, 3-Chloro-6-{(E)-1-[4-(3-methoxypropyl)phenyl]-2-[(2R)-5-oxopyrrolidin-2-yl]ethenyl}pyridin-2(1H)-one]",0.5 to 3
22,"Cc1cc(/C(=C\[C@H]2CCC(=O)N2)c2ccc(C3CC3)c(=O)[nH]2)ccc1C(F)(F)F [Example 4-265, 3-Cyclopropyl-6-{(E)-1-[3-methyl-4-(trifluoromethyl)phenyl]-2-[(2R)-5-oxopyrrolidin-2-yl]ethenyl}pyridin-2(1H)-one]",0.01 to 0.5
23,"O=C1CC[C@H](/C=C(/c2ccc(C3CC3)c(=O)[nH]2)c2ccc(Cl)cc2F)N1 [Example 4-266, 6-{(E)-1-(4-Chloro-2-fluorophenyl)-2-[(2R)-5-oxopyrrolidin-2-yl]ethenyl}-3-cyclopropylpyridin-2(1H)-one]",0.01 to 0.5
24,"O=C1CC[C@H](/C=C(/c2ccc(C3CC3)c(=O)[nH]2)c2ccc(C(F)(F)F)cc2F)N1 [Example 4-267, 3-Cyclopropyl-6-{(E)-1-[2-fluoro-4-(trifluoromethyl)phenyl]-2-[(2R)-5-oxopyrrolidin-2-yl]ethenyl}pyridin-2(1H)-one]",0.01 to 0.5
25,"O=C1CC[C@H](/C=C(\c2ccc(C3CC3)cc2)c2ccc(C3CC3)c(=O)[nH]2)N1 [Example 4-268, 3-Cyclopropyl-6-{(E)-1-(4-cyclopropylphenyl)-2-[(2R)-5-oxopyrrolidin-2-yl]ethenyl}pyridin-2(1H)-one]",0.01 to 0.5
26,"O=C1CC[C@H](/C=C(\c2ccc(OC3CC3)c(Cl)c2)c2ccc(C3CC3)c(=O)[nH]2)N1 [Example 4-269, 6-{(E)-1-[3-Chloro-4-(cyclopropyloxy)phenyl]-2-[(2R)-5-oxopyrrolidin-2-yl]ethenyl}-3-cyclopropylpyridin-2(1H)-one]",0.01 to 0.5
27,"O=C1CC[C@H](/C=C(\c2ccc(OCC(F)(F)F)c(Cl)c2)c2ccc(C3CC3)c(=O)[nH]2)N1 [Example 4-270, 6-{(E)-1-[3-Chloro-4-(2,2,2-trifluoroethoxy)phenyl]-2-[(2R)-5-oxopyrrolidin-2-yl]ethenyl}-3-cyclopropylpyridin-2(1H)-one]",0.01 to 0.5
28,"CCc1ccc(/C(=C\[C@H]2CCC(=O)N2)c2ccc(C3CC3)c(=O)[nH]2)cc1Cl [Example 4-271, 6-{(E)-1-(3-Chloro-4-ethylphenyl)-2-[(2R)-5-oxopyrrolidin-2-yl]ethenyl}-3-cyclopropylpyridin-2(1H)-one]",0.01 to 0.5
29,"O=C1CC[C@H](/C=C(\c2ccc(CC(F)(F)F)cc2)c2ccc(C3CC3)c(=O)[nH]2)N1 [Example 4-272, 3-Cyclopropyl-6-{(E)-2-[(2R)-5-oxopyrrolidin-2-yl]-1-[4-(2,2,2-trifluoroethyl)phenyl]ethenyl}pyridin-2(1H)-one]",0.01 to 0.5
30,"O=C1CC[C@H](/C=C(\c2ccc(C(F)F)cc2)c2ccc(C3CC3)c(=O)[nH]2)N1 [Example 4-273, 3-Cyclopropyl-6-{(E)-1-[4-(difluoromethyl)phenyl]-2-[(2R)-5-oxopyrrolidin-2-yl]ethenyl}pyridin-2(1H)-one]",0.01 to 0.5
